{
  "source": "patent US20170290889A1",
  "about": "“METHODS AND COMPOSITIONS FOR TREATING DYSBIOSIS AND GASTROINTESTINAL AND INFLAMMATORY DISORDERS” (New York University, priority 2016, published 2017)",
  "key": {"[1]": {"system": "Ascaris spp.", "experiment": "Albendazole deworming of Orang Asli (formalin-ether sedimentation, Kato Katz)", "assay_type": "in vivo, human"}, "[2]": {"system": "Hookworm", "experiment": "Albendazole deworming of Orang Asli (formalin-ether sedimentation, Kato Katz)", "assay_type": "in vivo, human"}, "[3]": {"system": "T. trichiura", "experiment": "Albendazole deworming of Orang Asli (formalin-ether sedimentation, Kato Katz)", "assay_type": "in vivo, human"}, "[4]": {"system": "Clostridiales", "experiment": "16S sequencing of mouse stool / small intestinal microbiota (LEfSe)", "assay_type": "in vivo", "settings": "stool of uninfected Nod2−/− mice treated with recombinant cytokine, 16S / LEfSe"}, "[5]": {"system": "Bacteroides vulgatus", "experiment": "B. vulgatus colonization (stool, small intestinal tissue) in Nod2−/− mice, reported together with goblet cells", "assay_type": "in vivo", "settings": "Nod2−/− mice injected IP with complex of 5 μg recombinant cytokine and 25 μg anti-cytokine antibody for 21 days"}, "[6]": {"system": "M2 macrophage activation genes", "experiment": "RNA-seq gene expression analysis of small intestinal tissue (ileum) of Nod2−/− mice treated with rIL-13 or PBS", "assay_type": "in vivo", "settings": "for Log2 Fold Change: Nod2−/− mice treated with recombinant IL-13 compared to PBS controls", "from_the_text": "Mice. Nod2−/−, Rag1−/−, Nod2−/−, and Stat6−/− mice on the C57BL/6 background were previously described and bred onsite in an MNV/Helicobacter-free specific pathogen free (SPF) facility at NYU School of Medicine (6, 23). Wild-type (WT) C57BL/6 mice were purchased from Jackson Laboratory and bred onsite to generate controls for experiments. Bone marrow chimeras were generated by lethally irradiating 8-week old female recipient mice (1100 CGy in two divided doses) followed by intravenous (i.v.) injection of 5×10^6 T cell-depleted bone marrow cells from donor female mice. For anti-CD4 treatment, mice were infected with T. muris and injected intra-peritoneally (IP) with 0.25 mg anti-CD4 (clone GK1.5) or anti-IgG2b isotype control (clone LTF-2) (BioXCell) every 3 days for 21 days and animals were sacrificed on day 21. For anti-IL13 treatment, mice were infected with H. polygyrus and injected IP with 0.15 mg anti-IL13 (clone 1316H) (eBioscience) or anti-IgG1 isotype control (clone 43414) (R&D Systems) starting on day 3 post-infection every 3 days for 12 days and animals were sacrificed on day 12. For recombinant IL-13 and IL-4 experiments, mice were injected IP with a complex of 25 μg of anti-IL13 (eBio1316H) and 5 μg of recombinant IL-13 (Peprotech cat #210-13), or a complex of 25 μg of anti-IL4 (BioXcel) and 5 μg of recombinant IL-4 (Peprotech cat #214-14) for 21 days and mice were sacrificed on day 21.\nGene Expression Analysis. RNA was isolated from one cm of small intestinal tissue (ileum) from Nod2^−/− mice treated with rIL-13 or PBS, or WT mice treated with PBS for normalization. An RNA library was prepared using the TruSeq stranded total RNA, with the RiboZero Gold kit and samples were sequenced on the Illumina HiSeq to generate single-end 50 bp reads. Raw sequencing reads were aligned to the mouse reference genome mm10 and the RefSeq reference transcriptome using TopHat (v2.0.12) with the alignment parameter—library-type fr-firststrand (28). Reads with mappability score (MAPQ) <30 were removed. The total number of filtered reads were counted for each gene using htseq-count with the parameters—stranded=reverse and—mode=union. Singleton genes (i.e. genes with total count <1) were filtered and the resulting count matrix was used for differential analysis using the DESeq2 workflow with default parameters (29, 30). Differential genes with rIL-13 treatment were identified at FDR 10%. Pathway analysis was performed using the DAVID platform as previously described (6)."}, "[7]": {"settings": "T. trichiura, post-treatment n=64"}},
  "data": [
    {"molecule": "CCCSc1ccc2nc(NC(=O)OC)[nH]c2c1", "note": "[albendazole]", "values": [
      {"measurement": "Cure rate (%)", "setting": "[1]; 20 days", "value": 80.0, "unit": "%"},
      {"measurement": "Number of infected persons cured after deworming", "setting": "[1]; 20 days", "value": 8},
      {"measurement": "range of epg after treatment", "setting": "[1]; after albendazole 3×400 mg", "value": "22-4999 epg"},
      {"measurement": "Light-intensity infections after treatment (%)", "setting": "[1]; post-treatment n=64", "value": 3.1, "unit": "%"},
      {"measurement": "Light-intensity infections after treatment, number", "setting": "[1]; post-treatment n=64", "value": 2},
      {"measurement": "Total infections after treatment (%)", "setting": "[1]; post-treatment n=64", "value": 3.1, "unit": "%"},
      {"measurement": "Total infections after treatment, number", "setting": "[1]; post-treatment n=64", "value": 2},
      {"measurement": "Cure rate (%)", "setting": "[2]; 20 days", "value": "96 .3%"},
      {"measurement": "Number of infected persons cured after deworming", "setting": "[2]; 20 days", "value": 26},
      {"measurement": "range of epg after treatment", "setting": "[2]; after albendazole 3×400 mg", "value": 22, "unit": "epg"},
      {"measurement": "Light-intensity infections after treatment (%)", "setting": "[2]; post-treatment n=64", "value": 1.6, "unit": "%"},
      {"measurement": "Light-intensity infections after treatment, number", "setting": "[2]; post-treatment n=64", "value": 1},
      {"measurement": "Total infections after treatment (%)", "setting": "[2]; post-treatment n=64", "value": 1.6, "unit": "%"},
      {"measurement": "Total infections after treatment, number", "setting": "[2]; post-treatment n=64", "value": 1},
      {"measurement": "Cure rate (%)", "setting": "[3]; T. trichiura, 20 days, albendazole 3 doses, 400 mg/day", "value": 32.9, "unit": "%"},
      {"measurement": "range of epg after treatment", "setting": "[3]; T. trichiura, after albendazole 3×400 mg", "value": "22-2,266 epg"},
      {"measurement": "Light-intensity infections after treatment (%)", "setting": "[3]; [7]", "value": 70.3, "unit": "%"},
      {"measurement": "Light-intensity infections after treatment, number", "setting": "[3]; [7]", "value": 45},
      {"measurement": "Moderate-intensity infections after treatment (%)", "setting": "[3]; [7]", "value": 3.1, "unit": "%"},
      {"measurement": "Moderate-intensity infections after treatment, number", "setting": "[3]; [7]", "value": 2},
      {"measurement": "Total infections after treatment (%)", "setting": "[3]; [7]", "value": 73.4, "unit": "%"},
      {"measurement": "Total infections after treatment, number", "setting": "[3]; [7]", "value": 47},
      {"measurement": "Trichuris trichiura egg burden (eggs per gram of feces, Kato-Katz)", "setting": "[3]; post treatment with Albendazole (3 doses, 400 mg/day)", "value": "reduced"}
    ]},
    {"molecule": "rIL-4: recombinant IL-4 (Peprotech cat #214-14), type 2 cytokine, injected IP as complex with anti-IL4 (protein, UniProt P07750 21-140, looked up, complexed with anti-IL-4 antibody, recombinant IL-4 (Peprotech cat #214-14), type 2 cytokine, injected IP as complex with anti-IL4) Interleukin-4: HIHGCDKNHLREIIGILNEVTGEGTPCTEMDVPNVLTATKNTTESELVCRASKVLRIFYLKHGKTPCLKKNSSVLMELQRLFRAFRCLDSSISCTMNESKSTSLKDFLESLKSIMQMDYS", "values": [
      {"measurement": "expansion of Clostridiales", "setting": "[4]", "value": "expansion of Clostridiales was also observed"},
      {"measurement": "expansion of Clostridiales", "setting": "[4]; listed as IL-4", "value": "induces the expansion of bacteria from the class Clostridia in the GI tract"},
      {"measurement": "effect on B. vulgatus and goblet cells", "setting": "[5]", "value": "sufficient to reproduce the effect of helminth infection"}
    ]},
    {"molecule": "rIL-13: recombinant IL-13 (Peprotech cat #210-13), type 2 cytokine, injected IP as complex with anti-IL13 (protein, UniProt P20109 19-131, looked up, complexed with anti-IL-13 antibody, recombinant IL-13 (Peprotech cat #210-13), type 2 cytokine, injected IP as complex with anti-IL13) Interleukin-13: APGPVPRSVSLPLTLKELIEELSNITQDQTPLCNGSMVWSVDLAAGGFCVALDSLTNISNCNAIYRTQRILHGLCNRKAPTTVSSLPDTKIEVAHFITKLLSYTKQLFRHGPF", "values": [
      {"measurement": "expansion of Clostridiales", "setting": "[4]", "value": "expansion of Clostridiales was also observed"},
      {"measurement": "expansion of Clostridiales", "setting": "[4]; listed as IL-13", "value": "induces the expansion of bacteria from the class Clostridia in the GI tract"},
      {"measurement": "Log2 Fold Change", "setting": "[6]; gene Arg1 (NM_007482)", "value": 1.468},
      {"measurement": "Log2 Fold Change", "setting": "[6]; gene Ccl8 (NM_021443)", "value": 1.5},
      {"measurement": "Log2 Fold Change", "setting": "[6]; gene Cd5l (NM_009690)", "value": 1.504},
      {"measurement": "Log2 Fold Change", "setting": "[6]; gene Chi3l3 (NM_009892)", "value": 2.681},
      {"measurement": "Log2 Fold Change", "setting": "[6]; gene Ear11 (NM_053113)", "value": 1.698},
      {"measurement": "Log2 Fold Change", "setting": "[6]; gene Gm11428 (NM_001081957)", "value": 1.53},
      {"measurement": "Log2 Fold Change", "setting": "[6]; gene Retnla (NM_020509)", "value": 1.625},
      {"measurement": "Log2 Fold Change", "setting": "[6]; gene Saa3 (NM_011315)", "value": 1.846},
      {"measurement": "Log2 Fold Change", "setting": "[6]; gene Serpina3n (NM_009252)", "value": 1.58},
      {"measurement": "RNA-seq analysis of intestinal tissues: response", "setting": "[6]; rIL-13 treated Nod2−/− mice", "value": "wound healing response characterized by expression of M2 macrophage genes"},
      {"measurement": "effect on B. vulgatus and goblet cells", "setting": "[5]", "value": "sufficient to reproduce the effect of helminth infection"}
    ]}
  ]
}
